# Measured values taken from patent US5516936A, “Inhibitors of kynureninase” (University of Georgia Research Foundation, Inc., priority 1993, dated 1996).
# Read-outs that look alike come from different tables or passages of the source.
# Assays:
# bacterial kynureninase [1] = conditions: Hayaishi (1955); cited from earlier work
# [2] = system: kynureninase of P. fluorescens; conditions: cited from earlier work
# bacterial kynureninase [3] = conditions: cited from earlier work; for inhibition of bacterial kynureninase (in words): Tanizawa and Soda (1979)
# bacterial kynureninase [4] = conditions: Kishore (1984); cited from earlier work
# Kynureninase = target: T1, Kynureninase (Pseudomonas fluorescens, UniProt P83788); assay: Competitive inhibition of kynureninase by S-aryl cysteines and S-aryl cysteine sulfones; format: biochemical; conditions: for Ki: Table 1; for fold decrease in Ki value: relative to unsubstituted S-phenyl-L-cysteine; for inhibition (in words): bacterial kynureninase
# T1 construct: Bacterial kynureninase was prepared from cells of Pseudomonas fluorescens; endogenous in cells; partially purified by DEAE-cellulose and ammonium sulfate
# T1 sequence (P83788 1-416): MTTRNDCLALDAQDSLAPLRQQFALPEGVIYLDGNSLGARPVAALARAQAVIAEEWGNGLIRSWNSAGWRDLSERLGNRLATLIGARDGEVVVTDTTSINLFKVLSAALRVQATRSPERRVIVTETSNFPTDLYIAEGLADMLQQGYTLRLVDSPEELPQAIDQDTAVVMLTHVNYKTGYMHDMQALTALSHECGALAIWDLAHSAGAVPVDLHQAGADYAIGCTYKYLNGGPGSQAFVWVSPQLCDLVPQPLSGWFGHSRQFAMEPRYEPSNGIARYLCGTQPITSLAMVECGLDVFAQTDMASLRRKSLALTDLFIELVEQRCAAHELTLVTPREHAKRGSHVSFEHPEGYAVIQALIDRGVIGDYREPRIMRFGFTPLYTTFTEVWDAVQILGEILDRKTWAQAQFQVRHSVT
# Procedure: Bacterial kynureninase was prepared from cells of Pseudomonas fluorescens (ATCC 11250, for example) essentially as described by .Hayaishi and Stanier (1952) J. Biol. Chem. 195:735-740. Cells were grown on a minimal medium containing 0.1% L-tryptophan as the sole carbon and nitrogen source.
# From 100 1 of medium, grown for 18 h at 30° C. 230 g of wet cell paste was obtained. The cells were suspended in 1 of 0.01M potassiumphosphate, pH 7.0, and disrupted by 2 passages through a Manton-Gaulin homogenizer. After centrifugation of the cell extract for 1 h at 10000 g, the enzyme was partially purified by ion-exchange chromatography on DEAE-cellulose and ammonium sulfate precipitation.
# Kynureninase activity was measured at 25° C. by following the decrease in absorbance at 360 nm (ε=-4500M^-1 cm^-1). A typical assay mixture contained 0.4 mM L-kynurenine in 0.04M potassium phosphate, pH 7.8, containing 40 μM pyridoxal-5'-phosphate, at 25° C. The reactions of S-aryl cysteines and S-aryl cysteine sulfones with kynureninase were performed using a spectrophotometric coupled assay with lactate dehydrogenase and NADH, by monitoring a decrease in absorbance due to pyruvate formation. A typical assay mixture contained 30 μl lactate dehydrogenase solution (2 mg/ml), 0.1 mM NADH, 40 μM pyridoxal-5'-phosphate, 0.04M tris.HCl buffer, pH 7.8, with varying concentrations of the compounds. The competitive inhibition of these compounds was measured by variation of L-kynurenine concentrations at several fixed values of the inhibitor. Km and Vmax values were calculated by fitting of initial rate data to the Michaelis-Menten equation with ENZFITTER (Elsevier) on a Z-286 personal computer. KI values were determined from the equation:
# v=Vmax[S]/ (Km (1+[I]/Ki)+[S]
# rat liver kynureninase = target: T2, rat liver kynureninase (Rattus norvegicus, UniProt P70712); conditions: Wiss and Fuchs (1950); cited from earlier work
# T2 construct: host or cells: rat liver
# T2 sequence (P70712 1-464): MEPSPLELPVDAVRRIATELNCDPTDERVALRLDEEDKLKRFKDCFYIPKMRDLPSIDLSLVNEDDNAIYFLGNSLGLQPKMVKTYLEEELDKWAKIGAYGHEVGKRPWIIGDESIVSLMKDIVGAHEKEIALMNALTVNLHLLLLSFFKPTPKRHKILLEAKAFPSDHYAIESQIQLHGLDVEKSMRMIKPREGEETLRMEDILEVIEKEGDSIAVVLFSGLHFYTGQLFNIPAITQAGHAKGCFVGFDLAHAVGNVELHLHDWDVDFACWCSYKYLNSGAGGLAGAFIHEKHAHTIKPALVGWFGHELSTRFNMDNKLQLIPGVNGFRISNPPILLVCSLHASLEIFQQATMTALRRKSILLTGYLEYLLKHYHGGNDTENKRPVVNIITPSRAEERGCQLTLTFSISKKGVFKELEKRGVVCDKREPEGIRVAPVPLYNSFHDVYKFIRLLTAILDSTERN
# [5] = competitive inhibition vs L-kynurenine, pH 7.8, 25° C., footnote 1: 0.07 is an upper limit, read-out: Ki
structure (smiles),measurement,setting,value
Nc1ccccc1C(=O)CCC(=O)O [β-(o-aminobenzoyl)propanoic acid],substrate of bacterial kynureninase (in words),bacterial kynureninase [1],do not react with bacterial kynureninase
Nc1cc(F)ccc1C(=O)C[C@H](N)C(=O)O [4-fluoro-L-kynurenine],substrate of kynureninase (in words),[2]; Tanizawa and Soda (1979),substrates
CC(=O)c1ccccc1N [o-aminoacetophenone],inhibition of bacterial kynureninase (in words),bacterial kynureninase [3],inhibitors
N[C@@H](COS(=O)(=O)O)C(=O)O [L-serine O-sulfate],inactivation of kynureninase (in words),bacterial kynureninase [4],inactivated kynureninase
same,reaction with kynureninase (in words),bacterial kynureninase [4],react with kynureninase to give pyruvate and ammonia
N[C@@H](CS(=O)(=O)c1ccccc1)C(=O)O [S-phenyl-L-cysteine sulfone],Ki,Kynureninase; [5],3.9 µM
same,Ki,Kynureninase; read-out: Ki value,3.9 µM
same,fold decrease in Ki value,Kynureninase,180 fold
N[C@@H](CC(=O)c1ccccc1O)C(=O)O [β-(o-hydroxybenzoyl)-L-alanine],substrate of bacterial kynureninase (in words),bacterial kynureninase [1],substrates
CC(O)CC(N)C(=O)O (stereo not drawn) [α-amino-γ-hydroxypentanoic acid],reaction with rat liver kynureninase to produce alanine (in words),rat liver kynureninase,reacted with rat liver kynureninase
N[C@@H](CCl)C(=O)O [β-chloro-L-alanine],inactivation of kynureninase (in words),bacterial kynureninase [4],inactivated kynureninase
same,reaction with kynureninase (in words),bacterial kynureninase [4],react with kynureninase to give pyruvate and ammonia
N[C@@H](CS(=O)(=O)c1ccc([N+](=O)[O-])cc1)C(=O)O,Ki,Kynureninase; [5],12 µM
N[C@@H](CC(=O)c1ccccc1NC=O)C(=O)O [N'-formyl-L-kynurenine],substrate of kynureninase (in words),[2]; Tanizawa and Soda (1979),substrates
same,Km,[2]; bacterial kynureninase,2200 µM
same,substrate of bacterial kynureninase (in words),bacterial kynureninase [1],not a substrate
Nc1ccccc1C=O [o-aminobenzaldehyde],inhibition of bacterial kynureninase (in words),bacterial kynureninase [3],strongly inhibited
same,Ki,bacterial kynureninase [3]; non-competitive inhibition,6.5 µM
N[C@@H](CSc1ccccc1)C(=O)O [S-phenyl-L-cysteine],Ki,Kynureninase; [5],700 µM
same,Ki,Kynureninase; read-out: Ki value,700 µM
same,inhibition (in words),Kynureninase,very weak inhibitor
CC(=O)CC(N)C(=O)O (stereo not drawn) [2-aminolevulinic acid],reaction with rat liver kynureninase to produce alanine (in words),rat liver kynureninase,reacted with rat liver kynureninase
O=C(O)CCC(=O)c1ccccc1 [β-benzoylpropanoic acid],substrate of bacterial kynureninase (in words),bacterial kynureninase [1],do not react with bacterial kynureninase
"Nc1ccccc1C(O)C[C@H](N)C(=O)O (stereo partly drawn) [dihydrokynurenine, α,2-diamino-γ-hydroxybenzenebutanoic acid]",Km,[2]; Tanizawa and Soda (1979),67 µM
same,Vmax / reactivity relative to L-kynurenine,[2]; Tanizawa and Soda (1979),about 65%
same,substrate of kynureninase (in words),[2]; Tanizawa and Soda (1979),substrate
Nc1ccc(SC[C@H](N)C(=O)O)cc1,Ki,Kynureninase; [5],140 µM
Nc1ccc(S(=O)(=O)C[C@H](N)C(=O)O)cc1,Ki,Kynureninase; [5],8.5 µM
N[C@@H](CC(=O)c1cccc(O)c1)C(=O)O [β-(m-hydroxybenzoyl)-L-alanine],substrate of bacterial kynureninase (in words),bacterial kynureninase [1],do not react with bacterial kynureninase
N[C@@H](CSC(=O)c1ccccc1)C(=O)O [S-benzoyl-L-cystsine],substrate of kynureninase (in words),[2]; Tanizawa and Soda (1979),not substrates
Nc1ccccc1SC[C@H](N)C(=O)O [S-(2-aminophenyl)-L-cysteine],Ki,Kynureninase; [5],2.5 µM
same,Ki,Kynureninase; read-out: Ki value,2.2 µM
same,fold decrease in Ki value,Kynureninase,318 fold
Nc1ccc(O)cc1C(=O)C[C@H](N)C(=O)O [5-hydroxy-L-kynurenine],substrate of kynureninase (in words),[2]; Tanizawa and Soda (1979),substrates
same,substrate of bacterial kynureninase (in words),bacterial kynureninase [1],substrates
Cc1ccc(N)c(C(=O)C[C@H](N)C(=O)O)c1 [5-methyl-L-kynurenine],substrate of kynureninase (in words),[2]; Tanizawa and Soda (1979),substrates
N[C@@H](CC(=O)c1ccccc1[N+](=O)[O-])C(=O)O [β-(o-nitrobenzoyl)-L-alanine],reaction with rat liver kynureninase to produce alanine (in words),rat liver kynureninase,did not
same,substrate of bacterial kynureninase (in words),bacterial kynureninase [1],do not react with bacterial kynureninase
Nc1ccc(C(=O)C[C@H](N)C(=O)O)cc1 [β-(p-aminobenzoyl)-L-alanine],substrate of bacterial kynureninase (in words),bacterial kynureninase [1],do not react with bacterial kynureninase
"Nc1ccccc1C(=O)C[C@H](N)C(=O)O [L-kynurenine, α,2-diamino-γ-oxobenzenebutanoic acid]",reaction with rat liver kynureninase to produce alanine (in words),rat liver kynureninase,reacted with rat liver kynureninase
same,Km,[2]; Tanizawa and Soda (1979),35 µM
N[C@@H](CC(=O)c1ccccc1)C(=O)O [β-benzoyl-L-alanine],reaction with rat liver kynureninase to produce alanine (in words),rat liver kynureninase,reacted with rat liver kynureninase
same,substrate of kynureninase (in words),[2]; Tanizawa and Soda (1979),substrates
same,Km,[2]; bacterial kynureninase,160 µM
same,substrate of bacterial kynureninase (in words),bacterial kynureninase [1],substrates
CC(=O)OC[C@H](N)C(=O)O [o-acetyl-L-serine],inactivation of kynureninase (in words),bacterial kynureninase [4],inactivated kynureninase
same,reaction with kynureninase (in words),bacterial kynureninase [4],react with kynureninase to give pyruvate and ammonia
Nc1ccccc1S(=O)(=O)C[C@H](N)C(=O)O [S-(2-aminophenyl)-L-cysteine sulfone],Ki,Kynureninase; [5],≤ 0.07 µM
same,Ki,Kynureninase; read-out: Ki,~0.07 µM
same,inhibition (in words),Kynureninase,considerably more potent inhibitor of kynureninase
"Nc1c(O)cccc1C(=O)C[C@H](N)C(=O)O [3-hydroxy-L-kynurenine, α,2-diamino-3-hydroxy-γ-oxobenzenebutanoic acid]",reaction with rat liver kynureninase to produce alanine (in words),rat liver kynureninase,reacted with rat liver kynureninase
same,Km,[2]; Tanizawa and Soda (1979),200 µM
same,substrate of kynureninase (in words),[2]; Tanizawa and Soda (1979),substrates
same,substrate of bacterial kynureninase (in words),bacterial kynureninase [1],substrates
N[C@@H](CC(O)c1ccccc1)C(=O)O (stereo partly drawn) [γ-phenyl-L-homoserine],reaction with rat liver kynureninase to produce alanine (in words),rat liver kynureninase,reacted with rat liver kynureninase
N#CC[C@H](N)C(=O)O [β-cyano-L-alanine],inactivation of kynureninase (in words),bacterial kynureninase [4],inactivated kynureninase
same,reaction with kynureninase (in words),bacterial kynureninase [4],react with kynureninase to give pyruvate and ammonia
CC(O)C[C@H](N)C(=O)O (stereo partly drawn) [γ-methyl-L-homoserine],reaction with rat liver kynureninase to produce alanine (in words),rat liver kynureninase,reacted with rat liver kynureninase
Nc1ccccc1C(=O)C[C@@H](N)C(=O)O [D-kynurenine],substrate of kynureninase (in words),[2]; Tanizawa and Soda (1979),not substrates
COc1cccc(C(=O)C[C@H](N)C(=O)O)c1N [3-methoxy-L-kynurenine],substrate of bacterial kynureninase (in words),bacterial kynureninase [1],do not react with bacterial kynureninase
NC(=O)C[C@H](N)C(=O)O [L-asparagine],substrate of kynureninase (in words),[2]; Tanizawa and Soda (1979),not substrates
Nc1ccc(F)cc1C(=O)C[C@H](N)C(=O)O [5-fluoro-L-kynurenine],substrate of kynureninase (in words),[2]; Tanizawa and Soda (1979),substrates
N[C@@H](CS(=O)(=O)c1ccccc1[N+](=O)[O-])C(=O)O,Ki,Kynureninase; [5],23 µM
